For 26 compounds, IC50 results are on record in patent publication US10836758B2, “Acyl sulfonamide NaV1.7 inhibitors” (BRISTOL-MYERS SQUIBB COMPANY, priority 2016, dated 2020).

For orientation: IC50 means the concentration that inhibits the measured activity by half.

The target in this test is NaV1.7 (Homo sapiens (Human), UniProt Q15858). Nature of the test: NaV1.7 IC50 of Table 1 (IonWorks Barracuda population patch clamp or ligand binding assay; table does not say which). The class given is cell-based. The note with it: HEK 293 cells expressing NaV1.7. On the procedure:
Ion Works Barracuda population patch clamp (PPC). PPC measurements were performed using an IonWorks Barracuda instrument (Molecular Devices Corporation, Union City, Calif.) using either PatchPlate™ PPC substrates (Molecular Devices Corporation) with 64 apertures per well. The ability to average currents from 64 recordings from each well greatly improves data consistency and recording success rates in the measurement of NaV1.7 mediated ionic currents. Calculated leak current was digitally subtracted from the total cell NaV1.7 current for each sample point acquired.
NaV1.7 currents were elicited by a voltage clamp protocol designed to bias the NaV1.7 channels to their inactivated state as follows. […] This was followed by a relatively brief hyperpolarization to −100 mv for 300 ms, then a 20 msec test pulse to −20 mV to elicit the NaV1.7 current used to measure the pharmacology of all test compounds. Compounds were incubated for 600 sec between the pre- and post-compound reads. […] The same solutions were used to record NaV1.5 currents, with the following voltage clamp protocol. NaV1.5 currents were elicited by a voltage clamp protocol designed to bias the NaV1.5 channels to their inactivated state as follows. […] This was followed by a relatively brief hyperpolarization to −100 mv for 30 ms, then a 20 msec test pulse to −10 mV to elicit the NaV1.5 current used to measure the pharmacology of all test compounds.
HEK 293 cells expressing NaV1.7 and NaV1.5 channels, were used (Essen Biosciences, Ann Arbor, Mich.). […] Cells were grown to 70% to 90% confluence in a flask and removed from the incubator (37° C., 5% CO2) 1 to 3 days after plating. Growth medium was aspirated from the culture flasks. […] Next a total of 2 mL TrypLE (Gibco) solution was added, and the flasks containing cells were sat for 3 min at RT, after which, the cells became visibly rounded and were easily dislodged from the bottom of the flask with a few brief taps on a solid surface. A total of 8 mL of media was added to the flask to inactivate the TrypLE, and the mixture was centrifuged at 910 rpm for 4 min. The cell supernatant was decanted, and the cell pellets were resuspended in 5-6 mL of external solution followed by gentle triturations using a 10 ml pipette, and transferred to a 15 ml conical tube and immediately brought to the IW Barracuda instrument.
Peak membrane currents were analyzed with IW Barracuda software and exported to Excel for further analysis. Concentration response curve fitting was performed with BMS in-house software. IC50 values were obtained by fits of the Hill equation to the average percent inhibition data plotted versus compound concentration. […] Results are reported in Table 1 (NaV1.7 Barra IC50 in nM and NaV1.5 Barra IC50 in nM).
hNaV1.7 binding affinities were determined with a filtration binding assay using purified membranes from HEK293 cells stably expressing hNaV1.7. HEK293 cells from a 10-stack cell culture flask (approximately 10^10 cells) were dissociated, frozen, and stored at −80° C. To prepare membranes, the frozen cell pellet was thawed and suspended in 6 ml hypotonic lysis buffer (50 mM HEPES, 0.1% mammalian protease inhibitor cocktail). 1 ml of resuspended cells was added to an additional 6 ml of lysis buffer and homogenized with 30 strokes of a tight pestle in a glass homogenizer. Homogenate was centrifuged at 1000×g for 10 minutes at 4° C. and the resulting supernatant was further centrifuged at 38,500×g for 60 minutes at 4° C. The resulting pellet was resuspended in binding buffer (50 mM HEPES, 130 mM NaCl, 5.4 mM KCl, 0.8 mM MgCl2, 5 mM glucose, pH 7.4) and needle homogenized with a 25 gauge needle. Protein concentration was determined with a BCA protein assay. Purified membranes were aliquoted, flash frozen in an ethyl alcohol dry ice bath, and stored at −80° C.
A general note: In patch-clamp work, channel activity is measured electrically.

Sequence of NaV1.7 (Q15858 whole entry): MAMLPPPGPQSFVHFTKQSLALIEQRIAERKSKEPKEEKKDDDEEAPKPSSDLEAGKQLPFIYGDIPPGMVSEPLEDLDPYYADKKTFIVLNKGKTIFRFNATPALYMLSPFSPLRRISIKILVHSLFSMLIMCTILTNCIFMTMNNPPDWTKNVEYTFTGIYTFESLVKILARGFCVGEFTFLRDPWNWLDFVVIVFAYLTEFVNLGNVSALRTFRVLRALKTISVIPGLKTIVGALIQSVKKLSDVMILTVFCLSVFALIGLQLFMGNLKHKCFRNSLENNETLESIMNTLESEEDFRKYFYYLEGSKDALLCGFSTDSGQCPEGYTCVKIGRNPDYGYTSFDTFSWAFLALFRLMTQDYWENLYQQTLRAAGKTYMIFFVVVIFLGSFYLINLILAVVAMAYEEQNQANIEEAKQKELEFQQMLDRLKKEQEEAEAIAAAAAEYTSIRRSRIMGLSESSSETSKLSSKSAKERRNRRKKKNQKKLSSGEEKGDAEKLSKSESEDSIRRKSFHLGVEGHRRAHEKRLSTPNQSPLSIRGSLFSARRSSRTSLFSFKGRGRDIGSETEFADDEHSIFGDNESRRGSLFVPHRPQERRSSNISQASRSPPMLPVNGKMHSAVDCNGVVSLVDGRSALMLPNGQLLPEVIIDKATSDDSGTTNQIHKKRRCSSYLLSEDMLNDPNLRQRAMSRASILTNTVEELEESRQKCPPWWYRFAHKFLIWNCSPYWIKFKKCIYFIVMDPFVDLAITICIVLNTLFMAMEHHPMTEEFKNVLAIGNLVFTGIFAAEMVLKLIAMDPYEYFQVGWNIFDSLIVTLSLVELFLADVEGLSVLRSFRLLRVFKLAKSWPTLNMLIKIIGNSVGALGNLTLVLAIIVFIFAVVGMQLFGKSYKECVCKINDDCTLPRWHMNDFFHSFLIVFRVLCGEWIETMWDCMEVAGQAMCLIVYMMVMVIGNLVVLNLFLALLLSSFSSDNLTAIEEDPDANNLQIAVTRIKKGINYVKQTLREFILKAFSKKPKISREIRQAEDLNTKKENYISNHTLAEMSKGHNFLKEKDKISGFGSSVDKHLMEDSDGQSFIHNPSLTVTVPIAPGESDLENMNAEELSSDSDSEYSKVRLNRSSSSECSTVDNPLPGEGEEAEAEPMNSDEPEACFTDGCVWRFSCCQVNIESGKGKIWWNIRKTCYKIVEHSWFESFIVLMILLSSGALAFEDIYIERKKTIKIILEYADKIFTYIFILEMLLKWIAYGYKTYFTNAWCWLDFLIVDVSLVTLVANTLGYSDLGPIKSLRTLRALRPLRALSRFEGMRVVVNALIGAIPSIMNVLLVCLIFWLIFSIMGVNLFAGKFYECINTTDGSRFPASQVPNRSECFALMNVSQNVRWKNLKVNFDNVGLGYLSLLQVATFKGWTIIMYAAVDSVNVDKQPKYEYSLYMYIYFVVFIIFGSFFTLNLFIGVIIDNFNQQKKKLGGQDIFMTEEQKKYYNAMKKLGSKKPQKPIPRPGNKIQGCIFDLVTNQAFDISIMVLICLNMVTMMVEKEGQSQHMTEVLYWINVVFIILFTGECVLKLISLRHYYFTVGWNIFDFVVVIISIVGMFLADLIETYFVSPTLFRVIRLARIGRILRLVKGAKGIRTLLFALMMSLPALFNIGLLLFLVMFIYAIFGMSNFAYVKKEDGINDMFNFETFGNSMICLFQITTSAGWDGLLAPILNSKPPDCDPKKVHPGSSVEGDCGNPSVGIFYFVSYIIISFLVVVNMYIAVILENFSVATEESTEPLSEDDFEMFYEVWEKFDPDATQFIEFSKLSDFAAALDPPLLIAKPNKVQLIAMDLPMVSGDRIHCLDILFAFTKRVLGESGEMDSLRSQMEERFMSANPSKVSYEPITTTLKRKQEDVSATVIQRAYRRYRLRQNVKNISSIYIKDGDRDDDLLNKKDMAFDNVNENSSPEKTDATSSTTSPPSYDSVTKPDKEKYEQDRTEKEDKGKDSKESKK

As to `CNC1CCC(COc2cc(F)c(S(=O)(=O)Nc3ncns3)cc2F)(Cc2ccc(Cl)c(F)c2)CC1` (centres unmarked) [Example 63, 4-((1-(4-Chloro-3-fluorobenzyl)-4-(methylamino)cyclohexyl)methoxy)-2,5-difluoro-N-(1,2,4-thiadiazol-5-yl)benzenesulfonamide], the IC50 was determined as 68 nM.
Then `O=S(=O)(Nc1nccs1)c1cc(Cl)c(NCC2(CN3CCOCC3)CC2)cc1F` [Example 8, 5-Chloro-2-fluoro-4-(((1-(morpholinomethyl)cyclopropyl)methyl)amino)-N-(thiazol-2-yl)benzenesulfonamide], with 181 nM; and `CN(C)C1CCC(CNc2cc(F)c(S(=O)(=O)Nc3nccs3)cc2Cl)CC1` (centres unmarked) [Example 24, 5-Chloro-4-(((4-(dimethylamino)cyclohexyl)methyl)amino)-2-fluoro-N-(thiazol-2-yl)benzenesulfonamide], with 69 nM; and `NC1CCC(COc2cc(F)c(S(=O)(=O)Nc3ncns3)cc2F)(Cc2ccc(Cl)c(F)c2)CC1` (single isomer, unassigned) [Example 62, 4-((4-amino-1-(4-chloro-3-fluorobenzyl)cyclohexyl)methoxy)-2,5-difluoro-N-(1,2,4-thiadiazol-5-yl)benzenesulfonamide], with 55 nM.
The same measure for `NCC1CCCC(CNc2cc(F)c(S(=O)(=O)Nc3nccs3)cc2Cl)C1` (centres unmarked) [Example 32, 4-(((3-(Aminomethyl)cyclohexyl)methyl)amino)-5-chloro-2-fluoro-N-(thiazol-2-yl)benzenesulfonamide]: 28 nM; for `O=S(=O)(Nc1ncns1)c1cc(F)c(OCCC2(c3ccc(Cl)c(F)c3)CCNCC2)cc1F` [Example 46, 4-(2-(4-(4-Chloro-3-fluorophenyl)piperidin-4-yl)ethoxy)-2,5-difluoro-N-(1,2,4-thiadiazol-5-yl)benzenesulfonamide]: 110 nM; for `NC1CCC(CCOc2cc(F)c(S(=O)(=O)Nc3ncns3)cc2F)(c2ccccc2)CC1` (single isomer, unassigned) [Example 49, 4-(2-(4-amino-1-phenylcyclohexyl)ethoxy)-2,5-difluoro-N-(1,2,4-thiadiazol-5-yl)benzenesulfonamide]: 15 nM.
The same measure for `O=S(=O)(Nc1nccs1)c1cc(Cl)c(NCCC2CCCO2)cc1F` (centres unmarked) [Example 39, 5-Chloro-2-fluoro-4-((2-(tetrahydrofuran-2-yl)ethyl)amino)-N-(thiazol-2-yl)benzenesulfonamide]: 221 nM.
The compound `CN1C(C)(C)CC(Nc2cc(F)c(S(=O)(=O)Nc3nccs3)cc2Cl)CC1(C)C` [Example 42, 5-Chloro-2-fluoro-4-((1,2,2,6,6-pentamethylpiperidin-4-yl)amino)-N-(thiazol-2-yl)benzenesulfonamide] showed an IC50 of 286 nM.
Then `O=S(=O)(Nc1nccs1)c1cc(Cl)c(NCC2CCC(N3CCOCC3)CC2)cc1F` (centres unmarked) [Example 26, 5-Chloro-2-fluoro-4-(((4-morpholinocyclohexyl)methyl)amino)-N-(thiazol-2-yl)benzenesulfonamide], with 27 nM; and `O=S(=O)(Nc1nccs1)c1cc(Cl)c(NCC2CNCCO2)cc1F` (centres unmarked) [Example 6, 5-Chloro-2-fluoro-4-((morpholin-2-ylmethyl)amino)-N-(thiazol-2-yl)benzenesulfonamide], with 67 nM; and `O=S(=O)(Nc1ncns1)c1cc(Cl)c(OCCC2(c3ccc(Cl)cc3)CCNCC2)cc1F` [Example 45, 5-Chloro-4-(2-(4-(4-chlorophenyl)piperidin-4-yl)ethoxy)-2-fluoro-N-(1,2,4-thiadiazol-5-yl)benzenesulfonamide], with 39 nM.
Then `N[C@H]1CC[C@@H](CNc2cc(F)c(S(=O)(=O)Nc3nccs3)cc2Cl)CC1` [Example 20, 4-((((1s,4s)-4-Aminocyclohexyl)methyl)amino)-5-chloro-2-fluoro-N-(thiazol-2-yl)benzenesulfonamide], with 7 nM; and `CNC1CCC(CNc2cc(F)c(S(=O)(=O)Nc3nccs3)cc2Cl)CC1` (centres unmarked) [Example 23, 5-Chloro-4-(((4-(methylamino)cyclohexyl)methyl)amino)-2-fluoro-N-(thiazol-2-yl)benzenesulfonamide], with 16 nM.
The same measure for `O=S(=O)(Nc1ncns1)c1cc(F)c(OCCC2(c3ccc(Cl)cc3)CCNCC2)cc1F` [Example 44, 4-(2-(4-(4-Chlorophenyl)piperidin-4-yl)ethoxy)-2,5-difluoro-N-(1,2,4-thiadiazol-5-yl)benzenesulfonamide]: 124 nM; for `COCC1CCN(c2cc(F)c(S(=O)(=O)Nc3nccs3)cc2Cl)C1` (centres unmarked) [Example 69, 5-chloro-2-fluoro-4-(3-(methoxymethyl)pyrrolidin-1-yl)-N-(thiazol-2-yl)benzenesulfonamide]: 568 nM; for `O=S(=O)(Nc1nccs1)c1cc(Cl)c(NCCC2(O)CCCC2)cc1F` [Example 35, 5-Chloro-2-fluoro-4-((2-(1-hydroxycyclopentyl)ethyl)amino)-N-(thiazol-2-yl)benzenesulfonamide]: 101 nM.
Regarding `N[C@H]1CC[C@H](CNc2cc(F)c(S(=O)(=O)Nc3nccs3)cc2Cl)CC1` [Example 21, 4-((((1r,4r)-4-Aminocyclohexyl)methyl)amino)-5-chloro-2-fluoro-N-(thiazol-2-yl)benzenesulfonamide], the IC50 was 398 nM.
Then `NC1CCC(CCOc2cc(F)c(S(=O)(=O)Nc3ncns3)cc2F)CC1` (centres unmarked) [Example 60, 4-(2-(4-Aminocyclohexyl)ethoxy)-2,5-difluoro-N-(1,2,4-thiadiazol-5-yl)benzenesulfonamide], with 367 nM; and `O=S(=O)(Nc1nccs1)c1cc(Cl)c(NCCC2CNC2)cc1F` [Example 16, 4-((2-(Azetidin-3-yl)ethyl)amino)-5-chloro-2-fluoro-N-(thiazol-2-yl)benzenesulfonamide], with 29 nM; and `O=S(=O)(Nc1nccs1)c1cc(Cl)c(N2CCC3CCNCC3C2)cc1F` (centres unmarked) [Example 67, 5-chloro-2-fluoro-4-(octahydro-2,7-naphthyridin-2(1H)-yl)-N-(thiazol-2-yl)benzenesulfonamide], with 267 nM.
In turn, `O=S(=O)(Nc1nccs1)c1cc(Cl)c(NCC2CNC2)cc1F` [Example 15, 4-((Azetidin-3-ylmethyl)amino)-5-chloro-2-fluoro-N-(thiazol-2-yl)benzenesulfonamide] had an IC50 of 394 nM.
The same measure for `O=S(=O)(Nc1nccs1)c1cc(Cl)c(N[C@H]2CC[C@@H](O)CC2)cc1F` [Example 36, 5-Chloro-2-fluoro-4-(((1s,4s)-4-hydroxycyclohexyl)amino)-N-(thiazol-2-yl)benzenesulfonamide]: 210 nM; for `O=S(=O)(Nc1nccs1)c1cc(Cl)c(N2CCC(CO)C2)cc1F` (centres unmarked) [Example 70, 5-chloro-2-fluoro-4-(3-(hydroxymethyl)pyrrolidin-1-yl)-N-(thiazol-2-yl)benzenesulfonamide]: 806 nM; for `O=S(=O)(Nc1nccs1)c1cc(Cl)c(NCCC2CCCNC2)cc1F` (centres unmarked) [Example 2, 5-Chloro-2-fluoro-4-((2-(piperidin-3-yl)ethyl)amino)-N-(thiazol-2-yl)benzenesulfonamide]: 12 nM.
The same measure for `COCCN1CCCC1CNc1cc(F)c(S(=O)(=O)Nc2nccs2)cc1Cl` (centres unmarked) [Example 68, 5-chloro-2-fluoro-4-(((1-(2-methoxyethyl)pyrrolidin-2-yl)methyl)amino)-N-(thiazol-2-yl)benzenesulfonamide]: 138 nM.
